“And” between values parts separate entries of the source, which are not always exact repeats. Equal values may be shown once. Read-outs that look alike come from different tables or passages of the source.
Columns and labels:
in vitro = conditions: human
HEV-3 replicon p6-Gluc = assay: microbe, parasite or virus in culture; assay type: cell-based, Hepatitis E virus
[1] = Hepatitis E virus, HepG2, 24 h, read-out: HEV, EC90 (24 h, nM)
[2] = Hepatitis E virus, HepG2, 48 h, read-out: HEV, EC90 (48 h, nM)2

| Molecule | CC50 at 24 h (in vitro) | CC50 at 48 h (in vitro) | EC50 (HEV-3 replicon p6-Gluc; Hepatitis E virus, HepG2, 24 h) | EC90 (HEV-3 replicon p6-Gluc; Hepatitis E virus, HepG2, 24 h) | EC50 (HEV-3 replicon p6-Gluc; Hepatitis E virus, HepG2, 48 h) | EC90 (HEV-3 replicon p6-Gluc; Hepatitis E virus, HepG2, 48 h) | CC50 (in vitro) | EC90 (HEV-3 replicon p6-Gluc; [1]) | EC90 (HEV-3 replicon p6-Gluc; [2]) | EC50 (HEV-3 replicon p6-Gluc; read-out: EC50) | EC90 (HEV-3 replicon p6-Gluc; read-out: EC90) |
| --- | --- | --- | --- | --- | --- | --- | --- | --- | --- | --- | --- |
| COC(=O)[C@H]1[C@@H](O)[C@@]2(O)c3c(OC)cc(OC)cc3O[C@@]2(c2ccc(Cl)cc2)[C@@H]1c1ccccc1 (racemic) [9a, (±)-Methyl (1R,2R,3S,3aR,8bS)-3a-(4-chlorophenyl)-1,8b-dihydroxy-6,8-dimethoxy-3-phenyl-2,3,3a,8b-tetrahydro-1H-cyclopenta[b]benzofuran-2-carboxylate] | 513 nM | 38.8 nM | 19.4 nM | 140 nM | 16.8 nM | 105 nM |  |  |  |  |  |
| COC(=O)[C@H]1[C@@H](O)[C@@]2(O)c3c(Cl)cc(Cl)cc3O[C@@]2(c2ccc(Br)cc2)[C@@H]1c1ccccc1 (racemic) [9db, (±)-Methyl (1R,2R,3S,3aR,8bS)-3a-(4-bromophenyl)-6,8-dichloro-1,8b-dihydroxy-3-phenyl-2,3,3a,8b-tetrahydro-1H-cyclopenta[b]benzofuran-2-carboxylate] | 389 nM | 48 nM | 29.6 nM | 128 nM | 14.7 nM | 124 nM |  |  |  |  |  |
| COC(=O)[C@H]1[C@@H](O)[C@@]2(O)c3c(Br)cc(Br)cc3O[C@@]2(c2ccc(OC)cc2)[C@@H]1c1ccccc1 (racemic) [9e, (±)-Methyl (1R,2R,3S,3aR,8bS)-6,8-dibromo-1,8b-dihydroxy-3a-(4-methoxyphenyl)-3-phenyl-2,3,3a,8b-tetrahydro-1H-cyclopenta[b]benzofuran-2-carboxylate] | 766 nM | 90.2 nM | 36.1 nM | 362 nM | 33.2 nM | 282 nM |  |  |  |  |  |
| COC(=O)[C@H]1[C@@H](O)[C@@]2(O)c3c(Cl)cc(Br)cc3O[C@@]2(c2ccc(OC)cc2)[C@@H]1c1ccccc1 (racemic) [9f, (±)-Methyl (1R,2R,3S,3aR,8bS)-6-bromo-8-chloro-1,8b-dihydroxy-3a-(4-methoxyphenyl)-3-phenyl-2,3,3a,8b-tetrahydro-1H-cyclopenta[b]benzofuran-2-carboxylate] | 663 nM | 61 nM | 9.9 nM | 583 nM | 14.9 nM | 454 nM |  |  |  |  |  |
| COC(=O)[C@H]1[C@@H](O)[C@@]2(O)c3c(Br)cc(Cl)cc3O[C@@]2(c2ccc(OC)cc2)[C@@H]1c1ccccc1 (racemic) [9g, (±)-Methyl (1R,2R,3S,3aR,8bS)-8-bromo-6-chloro-1,8b-dihydroxy-3a-(4-methoxyphenyl)-3-phenyl-2,3,3a,8b-tetrahydro-1H-cyclopenta[b]benzofuran-2-carboxylate] | 812 nM | 101 nM | 52.1 nM | 482 nM | 37.9 nM | 365 nM |  |  |  |  |  |
| COC(=O)[C@H]1[C@@H](O)[C@@]2(O)c3c(F)cc(OC)cc3O[C@@]2(c2ccc(OC)cc2)[C@@H]1c1ccccc1 (racemic) [9h, (±)-Methyl (1R,2R,3S,3aR,8bS)-8-fluoro-1,8b-dihydroxy-6-methoxy-3a-(4-methoxyphenyl)-3-phenyl-2,3,3a,8b-tetrahydro-1H-cyclopenta[b]benzofuran-2-carboxylate] |  | 163 nM | 61 nM | > 1000 nM | 64.3 nM | 634 nM | > 1000 nM |  |  |  |  |
| COC(=O)[C@H]1[C@@H](O)[C@@]2(O)c3c(OC)cc(F)cc3O[C@@]2(c2ccc(OC)cc2)[C@@H]1c1ccccc1 (racemic) [9i, (±)-Methyl (1R,2R,3S,3aR,8bS)-6-fluoro-1,8b-dihydroxy-8-methoxy-3a-(4-methoxyphenyl)-3-phenyl-2,3,3a,8b-tetrahydro-1H-cyclopenta[b]benzofuran-2-carboxylate] |  | 904 nM | > 1000 nM | > 1000 nM | 732 nM | > 1000 nM | > 1000 nM | > 1000 nM | > 1000 nM |  |  |
| COC(=O)[C@H]1[C@@H](O)[C@@]2(O)c3c(Cl)cc(OC)cc3O[C@@]2(c2ccc(OC)cc2)[C@@H]1c1ccccc1 (racemic) [9j, (±)-Methyl (1R,2R,3S,3aR,8bS)-8-chloro-1,8b-dihydroxy-6-methoxy-3a-(4-methoxyphenyl)-3-phenyl-2,3,3a,8b-tetrahydro-1H-cyclopenta[b]benzofuran-2-carboxylate] | 832 nM | 148 nM | 92.6 nM | 577 nM | 75.7 nM | 394 nM |  |  |  |  |  |
| COC(=O)[C@H]1[C@@H](O)[C@@]2(O)c3c(OC)cc(Cl)cc3O[C@@]2(c2ccc(OC)cc2)[C@@H]1c1ccccc1 (racemic) [9k, (±)-Methyl (1R,2R,3S,3aR,8bS)-6-chloro-1,8b-dihydroxy-8-methoxy-3a-(4-methoxyphenyl)-3-phenyl-2,3,3a,8b-tetrahydro-1H-cyclopenta[b]benzofuran-2-carboxylate] | 443 nM | 19.9 nM | 5.4 nM | 45.1 nM | 2.5 nM | 45.5 nM |  |  |  |  |  |
| COC(=O)[C@H]1[C@@H](O)[C@@]2(O)c3c(Br)cc(OC)cc3O[C@@]2(c2ccc(OC)cc2)[C@@H]1c1ccccc1 (racemic) [9l, (±)-Methyl (1R,2R,3S,3aR,8bS)-8-bromo-1,8b-dihydroxy-6-methoxy-3a-(4-methoxyphenyl)-3-phenyl-2,3,3a,8b-tetrahydro-1H-cyclopenta[b]benzofuran-2-carboxylate] | 787 nM | 114 nM | 83.6 nM | 343 nM | 44.7 nM | 305 nM |  |  |  |  |  |
| COCOc1cc(F)c2c(c1)O[C@@]1(c3ccc(OC)cc3)[C@H](c3ccccc3)[C@@H](C(=O)OC)[C@@H](O)[C@@]21O (racemic) [9na, (±)-Methyl (1R,2R,3S,3aR,8bS)-8-fluoro-1,8b-dihydroxy-6-(methoxymethoxy)-3a-(4-methoxyphenyl)-3-phenyl-2,3,3a,8b-tetrahydro-1H-cyclopenta[b]benzofuran-2-carboxylate] | 912 nM | 236 nM | 202 nM | > 1000 nM | 146 nM | 873 nM |  |  |  |  |  |
| COCOc1cc(F)c2c(c1)O[C@@]1(c3ccc(Br)cc3)[C@H](c3ccccc3)[C@@H](C(=O)OC)[C@@H](O)[C@@]21O (racemic) [9nb, (±)-Methyl (1R,2R,3S,3aR,8bS)-3a-(4-bromophenyl)-8-fluoro-1,8b-dihydroxy-6-(methoxymethoxy)-3-phenyl-2,3,3a,8b-tetrahydro-1H-cyclopenta[b]benzofuran-2-carboxylate] | 727 nM | 113 nM | 86.9 nM | 345 nM | 63.2 nM | 298 nM |  |  |  |  |  |
| COC(=O)[C@H]1[C@@H](O)[C@@]2(O)c3c(OC)cc(OC)cc3O[C@@]2(c2ccc(F)cc2)[C@@H]1c1ccccc1 (racemic) [11ba, (±)-Methyl (1R,2R,3S,3aR,8bS)-3a-(4-fluorophenyl)-1,8b-dihydroxy-6,8-dimethoxy-3-phenyl-2,3,3a,8b-tetrahydro-1H-cyclopenta[b]benzofuran-2-carboxylate] |  | 421 nM | 338 nM | > 1000 nM | 334 nM | > 1000 nM | > 1000 nM | > 1000 nM | > 1000 nM |  |  |
| COC(=O)[C@H]1[C@@H](O)[C@@]2(O)c3c(OC)cc(OC)cc3O[C@@]2(c2ccc(Br)cc2)[C@@H]1c1ccccc1 (racemic) [11bb, (±)-Methyl (1R,2R,3S,3aR,8bS)-3a-(4-bromophenyl)-1,8b-dihydroxy-6,8-dimethoxy-3-phenyl-2,3,3a,8b-tetrahydro-1H-cyclopenta[b]benzofuran-2-carboxylate] | 420 nM | 27.1 nM | 7.3 nM | 158 nM | 9.4 nM | 91.3 nM |  |  |  |  |  |
| COc1cc(OC)c2c(c1)O[C@@]1(c3ccc(Cl)cc3)[C@H](c3ccccc3)[C@@H](C(=O)N(C)C)[C@@H](O)[C@@]21O (racemic) [14aa, (±)-(1R,2R,3S,3aR,8bS)-3a-(4-chlorophenyl)-1,8b-dihydroxy-6,8-dimethoxy-N,N-dimethyl-3-phenyl-2,3,3a,8b-tetrahydro-1H-cyclopenta[b]benzofuran-2-carboxamide] | 390 nM | 22.7 nM | 7.2 nM | 174 nM | 8.9 nM | 102 nM |  |  |  |  |  |
| COc1cc(OC)c2c(c1)O[C@@]1(c3ccc(F)cc3)[C@H](c3ccccc3)[C@@H](C(=O)N(C)C)[C@@H](O)[C@@]21O (racemic) [14baa, (±)-(1R,2R,3S,3aR,8bS)-3a-(4-fluorophenyl)-1,8b-dihydroxy-6,8-dimethoxy-N,N-dimethyl-3-phenyl-2,3,3a,8b-tetrahydro-1H-cyclopenta[b]benzofuran-2-carboxamide] | 966 nM | 297 nM | 229 nM | > 1000 nM | 208 nM | 829 nM |  |  |  |  |  |
| (±)-(1R,2R,3S,3aR,8bS)-1,8b-Dihydroxy-N,6,8-trimethoxy-3a-(4-methoxyphenyl)-3-phenyl-2,3,3a,8b-tetrahydro-1H-cyclopenta[b]benzofuran-2-carboxamide [(±)-CR-31-B (rac-1c), reference compound] |  |  |  |  |  |  |  |  |  | 6.1 nM and 3.7 nM | 27.3 nM and 29 nM |
| (±)-(1R,2R,3S,3aR,8bS)-3a-(4-chlorophenyl)-1,8b-dihydroxy-N,6,8-trimethoxy-3-phenyl-2,3,3a,8b-tetrahydro-1H-cyclopenta[b]benzofuran-2-carboxamide [14ab] |  |  |  |  |  |  |  |  |  | 2.8 nM and 2.3 nM | 18.2 nM and 23.8 nM |
| (±)-(1R,2R,3S,3aR,8bS)-3a-(4-fluorophenyl)-1,8b-dihydroxy-N,6,8-trimethoxy-3-phenyl-2,3,3a,8b-tetrahydro-1H-cyclopenta[b]benzofuran-2-carboxamide [14bab] |  |  |  |  |  |  |  |  |  | 53.7 nM and 52.9 nM | 338 nM and 670 nM |
| (±)-(1R,2R,3S,3aR,8bS)-8-Bromo-6-chloro-1,8b-dihydroxy-N-methoxy-3a-(4-methoxyphenyl)-3-phenyl-2,3,3a,8b-tetrahydro-1H-cyclopenta[b]benzofuran-2-carboxamide [14g] |  |  |  |  |  |  |  |  |  | 4.1 nM and 5.5 nM |  |
